In patent publication US9493468B2, “Antifungal 5,6-dihydro-4H-pyrrolo[1,2-a][1,4]benzo-diazepines and 6H-pyrrolo[1,2-a][1,4]benzodiazepines substituted with heterocyclic derivatives” (Janssen Pharmaceutica NV, priority 2011, dated 2016):

Assays:
Format in all cases: cell-based
Cryptococcus neoformans = assay: Antifungal activity in vitro, resazurin growth inhibition: Cryptococcus neoformans (B66663)
Summary of the method: (§1)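 Compound dilutions, with 64 μM as the highest in-test level, are spotted onto plates, then an inoculum of 10^3 cfu in RPMI-1640 plus 2% glucose (MOPS, pH 7.0±0.1) is added. Plates are incubated at species-dependent time and temperature, up to a week or more at 27° C. for dermatophytes.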

Rhizopus oryzae = assay: Antifungal activity in vitro, resazurin growth inhibition: Rhizopus oryzae (IHEM5223)
Protocol: (§2) The standard susceptibility screen is performed in 96-well plates (U-bottom, Greiner Bio-One). Serial dilutions (2-fold or 4-fold) of 20 mM compound stock solutions are made in 100% DMSO, followed by an intermediate dilution step in water. These serial dilutions (10 μl) are then spotted onto test-plates that can be stored in the dark at 4° C. for a maximum period of 2 weeks. An adequate broad dose-range is included with 64 μM as the highest in-test concentration. The culture medium RPMI-1640 is supplemented with L-glutamine, 2% glucose and buffered with 3-(N-morpholino)-propanesulfonic acid (MOPS) at pH 7.0±0.1.
(§3) The different fungal species/isolates (Table 3a) are cryopreserved and 1/1000 diluted in medium just prior to use. A standard inoculum of 200 μl containing 10^3 colony-forming unit (cfu) is then added to each well. A positive control (100% growth=fungal culture without antifungal) and a negative control (0% growth ═RPMI-MOPS medium) are included on each plate. Optimal incubation time and temperature are dependent on the fungal species and vary from 24 h for yeasts (37° C.) to one week or more for dermatophytes (27° C.). Inhibition of fungal growth is measured after adding 10 μl of 0.005% (w/v) resazurin (Sigma Aldrich) to each well, based on the principle that living cells convert the non-fluorescent blue resazurin into the pink and fluorescent resorufin, allowing fluorimetric reading (λex 550 nm and λem 590 nm) after an additional incubation period (‘resa’ time mentioned in Table 3a).

Scedosporium prolificans = assay: Antifungal activity in vitro, resazurin growth inhibition: Scedosporium prolificans (IHEM21157)
Protocol: as §2, §3

[1] = system: Trichophyton mentagrophytes; assay: Antifungal activity in vitro, resazurin growth inhibition: Trichophyton mentagrophytes (B70554)
Summary of the method: as §1

Candida parapsilosis = assay: Antifungal activity in vitro, resazurin growth inhibition: Candida parapsilosis (B66126)
Summary of the method: as §1

Scedosporium apiospermum = assay: Antifungal activity in vitro, resazurin growth inhibition: Scedosporium apiospermum (IHEM3817)
Protocol: as §2, §3

Rhizomucor miehei = assay: Antifungal activity in vitro, resazurin growth inhibition: Rhizomucor miehei (IHEM13391)
Protocol: as §2, §3

Trichophyton rubrum = assay: Antifungal activity in vitro, resazurin growth inhibition: Trichophyton rubrum (B68183)
Summary of the method: as §1

Aspergillus fumigatus = assay: Antifungal activity in vitro, resazurin growth inhibition: Aspergillus fumigatus (B42928)
Summary of the method: as §1

Sporothrix schenkii = assay: Antifungal activity in vitro, resazurin growth inhibition: Sporothrix schenkii (B62482)
Summary of the method: as §1

Microsporum canis = assay: Antifungal activity in vitro, resazurin growth inhibition: Microsporum canis (B68128)
Summary of the method: as §1

Compound	Inf. F: Cryptococcus neoformans B66663, pIC50 (Cryptococcus neoformans)	Inf. J: Rhizopus oryzae IHEM5223, pIC50 (Rhizopus oryzae)	Inf. I: Scedosporium prolificans IHEM21157, pIC50 (Scedosporium prolificans)	Inf. G: Trichophyton mentagrophytes B70554, pIC50 [1]	Inf. D: Candida parapsilosis B66126, pIC50 (Candida parapsilosis)	Inf. H: Scedosporium apiospermum IHEM3817, pIC50 (Scedosporium apiospermum)	Inf. K: Rhizomucor miehei IHEM13391, pIC50 (Rhizomucor miehei)	Inf. C: Trichophyton rubrum B68183, pIC50 (Trichophyton rubrum)	Inf. E: Aspergillus fumigatus B42928, pIC50 (Aspergillus fumigatus)	Inf. A: Sporothrix schenkii B62482, pIC50 (Sporothrix schenkii)	Inf. B: Microsporum canis B68128, pIC50 (Microsporum canis)	further results
Clc1cccc2c1CN=C(c1ccc3sccc3c1)c1cccn1-2 [Compound 9]	–	–	–	–	–	–	–	–	–	–	–	IC50 (Cryptococcus neoformans; read-out: Inf. F: Cryptococcus neoformans B66663, pIC50 (converted)): 646 nM; IC50 (Rhizopus oryzae; Rhizopus arrhizus, read-out: Inf. J: Rhizopus oryzae IHEM5223, pIC50 (converted)): > 64600 nM; IC50 (Scedosporium prolificans; Lomentospora prolificans, read-out: Inf. I: Scedosporium prolificans IHEM21157, pIC50 (converted)): 39.8 nM; IC50 ([1]; read-out: Inf. G: Trichophyton mentagrophytes B70554, pIC50 (converted)): 97.7 nM; IC50 (Candida parapsilosis; Lodderomyces parapsilosis, read-out: Inf. D: Candida parapsilosis B66126, pIC50 (converted)): 603 nM; IC50 (Scedosporium apiospermum; read-out: Inf. H: Scedosporium apiospermum IHEM3817, pIC50 (converted)): 550 nM; IC50 (Rhizomucor miehei; read-out: Inf. K: Rhizomucor miehei IHEM13391, pIC50 (converted)): 2340 nM; IC50 (Trichophyton rubrum; read-out: Inf. C: Trichophyton rubrum B68183, pIC50 (converted)): 36.3 nM; IC50 (Aspergillus fumigatus; read-out: Inf. E: Aspergillus fumigatus B42928, pIC50 (converted)): 12.9 nM; IC50 (Sporothrix schenkii; read-out: Inf. A: Sporothrix schenkii B62482, pIC50 (converted)): 1660 nM; IC50 (Microsporum canis; read-out: Inf. B: Microsporum canis B68128, pIC50 (converted)): 107 nM
CC(F)(F)c1ccc(C2=NCc3c(F)cc(F)cc3-n3cccc32)cn1 [Compound 86]	4.99	<4.19	5.77	5.59	5.56	4.43	<4.19	6.30	5.68	4.94	5.67	–
Fc1cccc2cc(C3=NCc4c(Cl)cc(Cl)cc4-n4cccc43)oc12 [Compound 149]	4.81	<4.19	5.79	5.61	<4.19	<4.19	<4.19	6.10	5.47	<4.19	5.35	–
COc1cccc2cc(C3=NCc4c(Cl)cccc4-n4cccc43)oc12 [Compound 141]	<4.19	<4.19	5.05	7.64	<4.19	<4.19	<4.19	6.86	<4.19	<4.19	6.88	–
Fc1ccc2oc(C3=NCc4c(Cl)cccc4-n4cccc43)cc2c1 [Compound 123]	4.98	<4.19	6.44	6.23	<4.19	6.02	5.14	6.96	6.25	5.04	6.75	–
Cn1nnc2ccc(C3=NCc4c(Cl)cccc4-n4cccc43)cc21 [Compound 110]	5.09	<4.49	5.89	5.60	4.58	4.77	<4.49	5.96	5.50	4.44	5.30	–
Clc1ccc2c(c1)-n1cccc1C(c1cc3ccccc3o1)=NC2 [Compound 119]	6.40	<4.19	6.17	6.62	5.61	<4.19	<4.19	6.87	6.30	6.00	6.54	–

More lines, main results first:

Inf. F: Cryptococcus neoformans B66663, pIC50 (Cryptococcus neoformans)	Inf. J: Rhizopus oryzae IHEM5223, pIC50 (Rhizopus oryzae)	Inf. I: Scedosporium prolificans IHEM21157, pIC50 (Scedosporium prolificans)	Inf. G: Trichophyton mentagrophytes B70554, pIC50 [1]	Inf. D: Candida parapsilosis B66126, pIC50 (Candida parapsilosis)	Inf. H: Scedosporium apiospermum IHEM3817, pIC50 (Scedosporium apiospermum)	Inf. K: Rhizomucor miehei IHEM13391, pIC50 (Rhizomucor miehei)	Inf. C: Trichophyton rubrum B68183, pIC50 (Trichophyton rubrum)	Inf. E: Aspergillus fumigatus B42928, pIC50 (Aspergillus fumigatus)	Inf. A: Sporothrix schenkii B62482, pIC50 (Sporothrix schenkii)	Inf. B: Microsporum canis B68128, pIC50 (Microsporum canis)	Compound	further results
<4.19	<4.19	5.28	5.72	<4.19	<4.19	<4.19	6.27	5.75	5.10	5.69	FC(F)(F)c1ccc(C2=NCc3c(Cl)cc(Cl)cc3-n3cccc32)cn1 [Compound 91]	–
5.84	<4.19	5.72	6.17	5.25	4.35	<4.19	6.77	5.65	5.00	6.36	Cn1ccc2ccc(C3=NCc4c(Cl)cccc4-n4cccc43)cc21 [Compound 196]	–
6.31	4.95	5.08	6.79	5.35	6.01	4.91	7.69	6.00	5.50	6.70	Cc1cccc2cc(C3=NCc4ccccc4-n4cccc43)oc12 [Compound 130]	–
5.46	<4.19	6.92	6.22	4.50	5.79	<4.19	6.77	5.98	5.09	5.68	Clc1cc(Cl)c2c(c1)-n1cccc1C(c1ccc3ncsc3c1)=NC2 [Compound 187]	–
